Data: PubChem BioAssay AID280 (DTP/NCI, 2004)
Several values for one entry are separate records, joined by “and”; a condition that tells them apart may be missing. Identical values can stand only once. Inconclusive results and toxic doses are left out.

System: nude mice, LOX melanoma ip, survival T/C
Test: NCI In Vivo Anticancer Drug Screen. Data for tumor model Human Amelanotic Melanoma (LOX) (intraperitoneal) in NU/NU BALB/C (nude) mice
Conditions: endpoint: median survival time, higher = longer survival
Description: The antitumor activity of compounds was measured in mice bearing transplantable tumors. Survival or tumor size were measured and the results are expressed as the measurement made in the treated group (T) divided by the measurement made in the vehicle treated control group (C). The tumor model used in this assay is Human Amelanotic Melanoma (LOX) (intraperitoneal) in NU/NU BALB/C (nude) mice

[1] = dose: 75.0 mg/kg/injection, schedule: Q04DX003 (ip), vehicle: saline
[2] = dose: 150.0 mg/kg/injection, schedule: Q04DX003 (ip), vehicle: saline
[3] = dose: 300.0 mg/kg/injection, schedule: Q04DX003 (ip), vehicle: saline
[4] = dose: 30.0 mg/kg/injection, schedule: Q04DX003 (ip), vehicle: saline
[5] = dose: 300.0 mg/kg/injection, schedule: Q04DX003 (ip), vehicle: saline with Tween-80
[6] = dose: 120.0 mg/kg/injection, schedule: Q04DX003 (ip), vehicle: saline with Tween-80
[7] = dose: 30.0 mg/kg/injection, schedule: Q04DX003 (ip), vehicle: saline with Tween-80
[8] = dose: 60.0 mg/kg/injection, schedule: Q04DX003 (ip), vehicle: saline with Tween-80
[9] = dose: 240.0 mg/kg/injection, schedule: Q04DX003 (ip), vehicle: saline with Tween-80

With `Nc1ccc(S(=O)(=O)Nc2cnc3c(Cl)cccc3n2)cc1` the T/C (dose: 89.1 mg/kg/injection, schedule: Q06HX002 (ip), vehicle: other) was 103 % of control, the T/C (dose: 133.5 mg/kg/injection, schedule: Q01DX001 (ip), vehicle: other) was 88 % of control and the T/C (dose: 133.5 mg/kg/injection, schedule: Q01DX005 (ip), vehicle: other) was 109 % of control. The T/C (dose: 133.5 mg/kg/injection, schedule: Q06HX002 (ip), vehicle: other) was 103 % of control, the T/C (dose: 200.2 mg/kg/injection, schedule: Q01DX001 (ip), vehicle: other) was 98 % of control and the T/C (dose: 200.2 mg/kg/injection, schedule: Q01DX005 (ip), vehicle: other) was 114 % of control. The T/C (dose: 200.2 mg/kg/injection, schedule: Q06HX002 (ip), vehicle: other) was 114 % of control, the T/C (dose: 300.2 mg/kg/injection, schedule: Q01DX001 (ip), vehicle: other) was 104 % of control and the T/C (dose: 300.2 mg/kg/injection, schedule: Q01DX005 (ip), vehicle: other) was 116 % of control. The T/C (dose: 300.2 mg/kg/injection, schedule: Q06HX002 (ip), vehicle: other) was 111 % of control, the T/C (dose: 450.0 mg/kg/injection, schedule: Q01DX001 (ip), vehicle: other) was 110 % of control and the T/C (dose: 674.7 mg/kg/injection, schedule: Q01DX001 (ip), vehicle: other) was 119 % of control.
With `NC(CCC(=O)NC(CS)C(=O)NCC(=O)O)C(=O)O` (stereo unspecified) the T/C [1] was 100 % of control, the T/C [2] was 100 % of control and the T/C (dose: 259.0 mg/kg/injection, schedule: Q04DX003 (ip), vehicle: saline) was 108 % of control. The T/C [3] was 107 % of control, the T/C (dose: 432.0 mg/kg/injection, schedule: Q04DX003 (ip), vehicle: saline) was 108 % of control and the T/C (dose: 600.0 mg/kg/injection, schedule: Q04DX003 (ip), vehicle: saline) was 104 % of control. For the same compound, the T/C (dose: 720.0 mg/kg/injection, schedule: Q04DX003 (ip), vehicle: saline) was 93 % of control and the T/C (dose: 1200.0 mg/kg/injection, schedule: Q04DX003 (ip), vehicle: saline) was 95 % of control.
In the case of `COc1cc2c(cc1OC)[C@@H]1C(=O)c3ccc4c(c3O[C@@H]1CO2)C[C@H](C(C)C)O4`, the T/C (dose: 18.75 mg/kg/injection, schedule: Q04DX003 (ip), vehicle: Klucel (hydroxypropylcellulose) (HPC)) is reported as 113 % of control and the T/C (dose: 37.5 mg/kg/injection, schedule: Q04DX003 (ip), vehicle: Klucel (hydroxypropylcellulose) (HPC)) is reported as 110 % of control.
With `CCCSc1nc(COC(=O)NC)c(COC(=O)NC)n1C` the T/C [4] was 113 % of control, the T/C (dose: 60.0 mg/kg/injection, schedule: Q04DX003 (ip), vehicle: saline) was 110 % of control and the T/C (dose: 120.0 mg/kg/injection, schedule: Q04DX003 (ip), vehicle: saline) was 90 % of control. For the same compound, the T/C (dose: 240.0 mg/kg/injection, schedule: Q04DX003 (ip), vehicle: saline) was 98 % of control.
`Nc1ccc2ccc(NS(=O)(=O)N3CCCCC3)cc2c1` was tested, and the T/C [5] was 154 % of control and the T/C (dose: 600.0 mg/kg/injection, schedule: Q04DX003 (ip), vehicle: saline with Tween-80) was 96 % of control.
With `COc1cc(NCc2ccc3nc(N)nc(N)c3c2C)cc(OC)c1OC` the T/C (dose: 7.5 mg/kg/injection, schedule: Q04DX003 (ip), vehicle: Klucel (hydroxypropylcellulose) (HPC)) was 151 % of control, the T/C (dose: 15.0 mg/kg/injection, schedule: Q04DX003 (ip), vehicle: Klucel (hydroxypropylcellulose) (HPC)) was 118 % of control and the T/C (dose: 30.0 mg/kg/injection, schedule: Q04DX003 (ip), vehicle: Klucel (hydroxypropylcellulose) (HPC)) was 118 % of control. The T/C (dose: 60.0 mg/kg/injection, schedule: Q04DX003 (ip), vehicle: Klucel (hydroxypropylcellulose) (HPC)) was 123 % of control.
With `CCN(CC)CC(C)(C)C(=O)/C=C/c1ccc(/C=C/C(=O)C(C)(C)CN(CC)CC)cc1` the T/C (dose: 7.5 mg/kg/injection, schedule: Q04DX003 (ip), vehicle: saline) was 103 % of control, the T/C (dose: 15.0 mg/kg/injection, schedule: Q04DX003 (ip), vehicle: saline) was 116 % of control and the T/C [4] was 109 % of control.
`O=C1CN(c2ccccc2)C(=O)C1C(=O)Nc1ccc(Cl)c(Cl)c1` (stereo unspecified) was tested, and the T/C [6] was 115 % of control.
In the case of `BrC[P+](CBr)(CBr)CBr`, the T/C (dose: 50.0 mg/kg/injection, schedule: Q04DX003 (ip), vehicle: saline with Tween-80) is reported as 113 % of control, the T/C (dose: 100.0 mg/kg/injection, schedule: Q04DX003 (ip), vehicle: saline with Tween-80) is reported as 121 % of control and the T/C (dose: 200.0 mg/kg/injection, schedule: Q04DX003 (ip), vehicle: saline with Tween-80) is reported as 105 % of control. For the same compound, the T/C (dose: 400.0 mg/kg/injection, schedule: Q04DX003 (ip), vehicle: saline with Tween-80) was 103 % of control and the T/C (dose: 800.0 mg/kg/injection, schedule: Q04DX003 (ip), vehicle: saline with Tween-80) was 119 % of control.
With `NC(Cc1ccccc1)C(=O)OCN1C(=O)C2C3C=CC(C2C1=O)C1C2C(=O)N(COC(=O)C(N)Cc4ccccc4)C(=O)C2C31` (stereo unspecified) the T/C (dose: 25.0 mg/kg/injection, schedule: Q04DX003 (ip), vehicle: water) was 105 % of control, the T/C (dose: 50.0 mg/kg/injection, schedule: Q04DX003 (ip), vehicle: water) was 109 % of control and the T/C (dose: 100.0 mg/kg/injection, schedule: Q04DX003 (ip), vehicle: water) was 107 % of control. The T/C (dose: 200.0 mg/kg/injection, schedule: Q04DX003 (ip), vehicle: water) was 116 % of control.
With `Cn1c(=S)sc2nc3ccccc3n2c1=S` the T/C [7] was 122 % of control, the T/C [8] was 100 % of control and the T/C [6] was 104 % of control. The T/C [9] was 108 % of control and the T/C (dose: 480.0 mg/kg/injection, schedule: Q04DX003 (ip), vehicle: saline with Tween-80) was 94 % of control.
With `CCCCN1C(=O)N(c2ccc(OCC)cc2)C2N(CCCC)C1C(C)(C)C2(C)C` (stereo unspecified) the T/C (dose: 15.0 mg/kg/injection, schedule: Q04DX003 (ip), vehicle: saline with Tween-80) was 101 % of control, the T/C [7] was 107 % of control and the T/C [8] was 101 % of control and 102 % of control. The T/C [6] was 101 % of control and the T/C [9] was 98 % of control.
In the case of `CCCCCCCCCCCCCCCCCCOCC(CO)OC` (stereo unspecified), the T/C (dose: 150.0 mg/kg/injection, schedule: Q04DX003 (ip), vehicle: saline with Tween-80) is reported as 150 % of control and 151 % of control and the T/C [5] is reported as 160 % of control.
With `CN(C)CCC(=O)C(=Cc1ccc(O)cc1)C(=O)CCN(C)C` the T/C (dose: 18.75 mg/kg/injection, schedule: Q04DX003 (ip), vehicle: saline) was 100 % of control, the T/C (dose: 37.5 mg/kg/injection, schedule: Q04DX003 (ip), vehicle: saline) was 101 % of control and the T/C [1] was 112 % of control. The T/C [2] was 107 % of control and the T/C [3] was 103 % of control.
In the case of `COc1cccc2c1C(=O)c1c(O)c3c(c(O)c1C2=O)C[C@@](O)(C(=O)CO)C[C@@H]3OC1CC(N)C(O)C(C)O1` (stereo partly specified), the T/C (dose: 0.25 mg/kg/injection, schedule: Q01DX015 (ip), vehicle: water) is reported as 162 % of control, the T/C (dose: 0.5 mg/kg/injection, schedule: Q01DX015 (ip), vehicle: water) is reported as 167 % of control and the T/C (dose: 1.0 mg/kg/injection, schedule: Q01DX005 (ip), vehicle: water) is reported as 208 % of control. For the same compound, the T/C (dose: 1.0 mg/kg/injection, schedule: Q01DX015 (ip), vehicle: water) was 152 % of control, the T/C (dose: 1.0 mg/kg/injection, schedule: Q04DX003 (ip), vehicle: water) was 270 % of control and the T/C (dose: 2.0 mg/kg/injection, schedule: Q01DX001 (ip), vehicle: water) was 197 % of control. For the same compound, the T/C (dose: 2.0 mg/kg/injection, schedule: Q04DX003 (ip), vehicle: water) was 203 % of control, the T/C (dose: 4.0 mg/kg/injection, schedule: Q01DX001 (ip), vehicle: water) was 240 % of control and the T/C (dose: 4.0 mg/kg/injection, schedule: Q04DX003 (ip), vehicle: saline) was 107 % of control. The T/C (dose: 4.0 mg/kg/injection, schedule: Q04DX003 (ip), vehicle: water) was 151 % of control, the T/C (dose: 4.0 mg/kg/injection, schedule: Q04DX003 (iv), vehicle: saline) was 158 % of control and the T/C (dose: 8.0 mg/kg/injection, schedule: Q04DX003 (ip), vehicle: saline) was 122 % of control. For the same compound, the T/C (dose: 8.0 mg/kg/injection, schedule: Q04DX003 (iv), vehicle: saline) was 275 % of control and the T/C (dose: 16.0 mg/kg/injection, schedule: Q04DX003 (ip), vehicle: saline) was 101 % of control.
In the case of `CNC(=O)OCc1nc(SC)n(C)c1COC(=O)NC`, the T/C (dose: 51.2 mg/kg/injection, schedule: Q04DX003 (ip), vehicle: water) is reported as 179 % of control, the T/C (dose: 57.5 mg/kg/injection, schedule: Q04DX003 (ip), vehicle: saline) is reported as 156 % of control and the T/C (dose: 76.7 mg/kg/injection, schedule: Q04DX003 (ip), vehicle: water) is reported as 229 % of control. For the same compound, the T/C (dose: 115.0 mg/kg/injection, schedule: Q04DX003 (ip), vehicle: saline) was 234 % of control and the T/C (dose: 115.0 mg/kg/injection, schedule: Q04DX003 (ip), vehicle: water) was 354 % of control.
